Measurements reported in patent US20230075822A1, “USE OF CASTALAGIN OR ANALOGS THEREOF FOR ANTI-CANCER EFFICACY AND TO INCREASE THE RESPONSE TO IMMUNE CHECKPOINT INHIBITORS” (THE ROYAL INSTITUTION FOR THE ADVANCEMENT OF …, priority 2020, published 2023).

system: MCA-205 sarcoma; assay: Subcutaneous MCA-205 sarcoma tumor model (anti-PD-1 sensitive), SPF-reared mice; type: in vivo, C57BL/6 mice; details: 0.85 mg/kg per mouse daily oral gavage; in contrast to castalagin
Protocol: FIG. 1A is a schematic of the protocol used to study the effect of a Camu camu extract (CC) alone and additive effect when combined to anti-PD-1 therapy in a murine tumor model sensitive to anti-PD-1 therapy. Syngeneic C57BL/6 mice were implanted with 0.8×10^6 MCA-205 sarcoma, subcutaneously and treated intraperitoneally (i.p.) when tumors reached 20 to 35 mm^2 in size with anti-PD-1 mAb (250 μg/mouse; clone RMP1-14,) or isotype control (clone 2A3) with or without daily oral gavage with 200 mg/kg of [NT] Powder from SunFood). Murine studies. All animal studies were approved by the Institutional Animal Care Committee (CIPA) and carried out in compliance with the Canadian Council on Animal Care guidelines. Murine experiments were conducted using seven-week-old female C57BL/6 mice, obtained from Charles River, Canada. Germ-free female C57BL/6 mice were purchased from the International Microbiome Centre Germ-Free Facility (University of Calgary, Canada) and maintained at the CR-CHUM Germ-Free Facility. Cell culture, reagents and tumor cell lines. MCA-205 fibrosarcoma cells and E0771 mammary adenocarcinoma cells, class I MHC H-2b syngeneic cell lines for C57BL/6 mice, were used for this study. MCA-205 cells were cultured at 37° C. in the presence of 5% CO2 in Roswell Park Memorial Institute (RPMI) 1640 (Gibco-lnvitrogen) containing 10% Fetal bovine serum (FBS) (Wisent), 2 mM L-glutamine (Wisent), 100 IU/ml penicillin/streptomycin (Wisent), 1 mM sodium pyruvate (Wisent) and MEM non-essential amino acids (Gibco-lnvitrogen). E0771 cells were cultured at 37° C. in the presence of 5% CO2 in Dulbecco's Modified Eagle's Medium (DMEM) (Gibco-lnvitrogen) containing 10% FBS (Wisent), 2 mM L-glutamine, 100 IU/ml penicillin/streptomycin (Wisent), 1 mM sodium pyruvate (Wisent). Subcutaneous model of MCA-205 sarcoma and E0771 breast cancer. Syngeneic C57BL/6 mice were implanted with 0.8×10^6 MCA-205 or 0.5×10^6 E0771 subcutaneously. When tumors reached 20 to 35 mm^2 in size, mice were treated four times (or two times for flow cytometry analysis, see section below) intraperitoneally (i.p.) every three day with anti-PD-1 monoclonal antibody (mAb) (250 μg/mouse; clone RMP1-14, BioXcell) or isotype control (clone 2A3, BioXcell). Upon treatment initiation, mice received a daily oral gavage with the following products: Myrciaria dubia, [NT] raw extract (Sunfood) (200 mg/kg per mouse), fractions from the extraction round 1 (P, INT, NP, Insol) (40.18 mg/kg per mouse), fractions from the extraction round 2 (P1, P2, P3 and P4) (equivalent to fraction P dose of 40.18 mg/kg per mouse), […] (extracted from CC, see isolation process below) (0.85 mg/kg per mouse), ellagic acid (0.85 mg/kg per mouse) (Sigma-Aldrich), urolithin A (0.85 mg/kg per mouse) (Sigma-Aldrich), […] (0.5 mg/kg per mouse) (PhytoProof®, Sigma-Aldrich) and castalagin at different concentration: 1/8, 1/6, 1/4, 1/2 of the standard concentration, at the standard concentration (0.85 mg/kg per mouse), 1.5-fold (1.25 mg/kg per mouse) and three-fold increase concentration (2.55 mg/kg per mouse) (PhytoProof©, Sigma-Aldrich or isolated from food grade oak, see isolation process below). In the control group mice received daily oral gavage with water (100 μL) Tumor area was routinely monitored every three days by means of a caliper. In the depletion experiments, we used the anti-CD8 mAb (150 μg/mouse; clone 53-6.7, BioXcell) or isotype control (clone 2A3, BioXcell.

| Compound | antitumor effect (tumor size at sacrifice) |
| --- | --- |
| O=c1oc2cc(O)ccc2c2ccc(O)cc12 [urolithin A, reference compound] | no antitumor effects were observed |
| O=C1OC[C@H]2OC(=O)c3cc(O)c(O)c(O)c3-c3c(O)c(O)c(O)c4c3C(=O)O[C@H]([C@H]3OC(=O)c5c-4c(O)c(O)c(O)c5[C@H]3O)[C@@H]2OC(=O)c2cc(O)c(O)c(O)c2-c2c1cc(O)c(O)c2O [vescalagin, reference compound] | no antitumor effects were observed |
| O=c1oc2c(O)c(O)cc3c(=O)oc4c(O)c(O)cc1c4c23 [ellagic acid, reference compound] | no antitumor effects were observed |
